Results on ten compounds are retold here after PMC8778300 (Molecules, 2022).

In test [1] the target is T1, human recombinant ALDH1a1 (Homo sapiens, UniProt P00352).
T1 sequence (P00352 1-501): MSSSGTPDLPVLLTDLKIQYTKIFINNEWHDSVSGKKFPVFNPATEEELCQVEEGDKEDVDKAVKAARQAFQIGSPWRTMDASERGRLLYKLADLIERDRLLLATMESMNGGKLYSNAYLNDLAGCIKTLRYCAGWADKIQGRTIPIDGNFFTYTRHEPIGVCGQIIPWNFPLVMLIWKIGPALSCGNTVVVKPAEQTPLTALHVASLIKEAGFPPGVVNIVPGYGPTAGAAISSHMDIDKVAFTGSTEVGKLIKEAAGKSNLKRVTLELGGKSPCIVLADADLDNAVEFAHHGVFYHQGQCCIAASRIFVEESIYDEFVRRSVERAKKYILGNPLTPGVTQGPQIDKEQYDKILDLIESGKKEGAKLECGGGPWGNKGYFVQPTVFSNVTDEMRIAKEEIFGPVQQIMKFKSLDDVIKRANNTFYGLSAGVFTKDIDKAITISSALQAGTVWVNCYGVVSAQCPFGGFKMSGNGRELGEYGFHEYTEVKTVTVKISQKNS
As to the kind of experiment: ALDH enzyme inhibition assay (ALDH1a1), diaphorase/resorufin fluorescence. Particulars: for IC50: read-out: IC50 (µM) ± SE (ALDH1a1); for fold reduction of ALDH1a1 inhibitory activity: relative to compound (2). It is filed as biochemical. As to the method:
(§1) The inhibitory activity of the thiuram disulfide (4) was evaluated in vitro against human recombinant ALDH1a1 and ALDH2, as shown in Figure 3 and Table 1.
(§2) All tested compounds were prepared as 100 mM stock solutions in DMSO. […] Five µL of desalted enzyme […] Five µL of reaction buffer were also added to the “no enzyme” background control wells. The test compounds were added to the assay wells. The reaction plate was then centrifuged briefly at 1200 rpm, then incubated for 20 min at RT. […] The reaction plate was briefly centrifuged and incubated at RT for 60 min. Ten µL of detection reagent composed of 15 µg/mL diaphorase and […] were added. The reaction plate was briefly centrifuged and incubated for a further 10 min at RT in the dark.

Test [2] concerns the target T2, human recombinant ALDH2 (Homo sapiens, UniProt P05091).
T2 sequence (P05091 18-517): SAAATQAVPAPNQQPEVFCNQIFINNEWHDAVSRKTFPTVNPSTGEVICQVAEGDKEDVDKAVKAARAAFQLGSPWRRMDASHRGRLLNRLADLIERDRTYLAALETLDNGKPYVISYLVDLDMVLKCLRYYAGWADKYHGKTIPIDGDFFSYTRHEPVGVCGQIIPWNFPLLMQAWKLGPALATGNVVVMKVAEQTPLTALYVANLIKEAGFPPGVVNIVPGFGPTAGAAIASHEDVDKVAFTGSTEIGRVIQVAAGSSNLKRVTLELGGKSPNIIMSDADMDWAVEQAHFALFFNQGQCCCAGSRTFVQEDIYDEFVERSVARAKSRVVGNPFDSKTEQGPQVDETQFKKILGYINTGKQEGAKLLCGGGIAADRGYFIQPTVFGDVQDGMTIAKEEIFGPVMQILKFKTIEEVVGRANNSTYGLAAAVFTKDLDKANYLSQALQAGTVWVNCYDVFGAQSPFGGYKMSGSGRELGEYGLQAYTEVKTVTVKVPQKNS
As to the kind of experiment: ALDH enzyme inhibition assay (ALDH2), diaphorase/resorufin fluorescence. The note with it: average of at least two experiments ± standard error; 100 µM acetaldehyde, 500 µM NAD+; 20 min preincubation; NI = no inhibition up to 0.5 mM; read-out: IC50 (µM) ± SE (ALDH2). It is filed as biochemical. As for the experimental part: as §1, §2

The target in test [3] is T2, human recombinant ALDH2. Particulars: previously reported; cited from earlier work.
[4] abbreviates: average of at least two experiments ± standard error, 250 µM acetaldehyde, 500 µM NAD+, 20 min preincubation, NI = no inhibition up to 0.5 mM.

For orientation: IC50 means the midpoint of a concentration-inhibition curve. In the case of `CCN(Cc1ccc(Cl)cc1)C(=S)SSC(=S)N(CC)Cc1ccc(Cl)cc1` [Compound 4c, bis(N-4-Chlorobenzylethylthiocarbamoyl)disulphide], the values for the half-maximal inhibitory concentration (IC50) in test [1] (setting [4]) and in test [2] were 0.86 ± 0.68 µM and above 500 µM, respectively. Also, the “fold reduction of ALDH1a1 inhibitory activity” value in test [1] is on record as “five”.

As to `CCN(Cc1ccco1)C(=S)SSC(=S)N(CC)Cc1ccco1` [Compound 4g, bis(N-(2-furylmethyl)ethylthiocarbamoyl)disulphide], the IC50 is 0.39 ± 0.27 µM in test [1] (setting [4]) and 200 µM in test [2].

With `CCN(Cc1ccncc1)C(=S)SSC(=S)N(CC)Cc1ccncc1` [Compound 4f, bis(N-(4-pyridylmethyl)ethylthiocarbamoyl)disulphide], the IC50 was 5.76 ± 4.01 µM in test [1] (setting [4]) and above 500 µM in test [2]. Further, the “fold reduction of ALDH1a1 inhibitory activity” value in test [1] is “more than 33 fold”.

On to `CCN(Cc1cccc(F)c1)C(=S)SSC(=S)N(CC)Cc1cccc(F)c1` [Compound 4a, bis(N-3-Fluorobenzylethylthiocarbamoyl)disulphide], for which the half-inhibitory concentration (IC50) was 0.31 ± 0.14 µM in test [1] (setting [4]) and above 500 µM in test [2]. For the same compound, the “fold reduction of ALDH1a1 inhibitory activity” value in test [1] came to 2 fold.

For `CCN(Cc1ccsc1)C(=S)SSC(=S)N(CC)Cc1ccsc1` [Compound 4i, bis(N-(3-thienylmethyl)ethylthiocarbamoyl)disulphide], the IC50 in test [1] (setting [4]) is 0.17 ± 0.1 µM; in test [2], above 500 µM.

For `CCN(Cc1ccc(C(F)(F)F)cc1)C(=S)SSC(=S)N(CC)Cc1ccc(C(F)(F)F)cc1` [Compound 4d, bis(N-4-trifluoromethylbenzylethylthiocarbamoyl)disulphide], in test [1] (setting [4]), the “IC50 (µM) ± SE (ALDH1a1)” value is “completely inactive” and the IC50 is above 500 µM. In test [2], the IC50 is above 500 µM.

In the case of `CCN(Cc1ccccc1F)C(=S)SSC(=S)N(CC)Cc1ccccc1F` [Compound 4b, bis(N-2-Fluorobenzylethylthiocarbamoyl)disulphide], the IC50 was 0.59 ± 0.46 µM in test [1] (setting [4]) and above 500 µM in test [2]. For the same compound, the “fold reduction of ALDH1a1 inhibitory activity” value in test [1] is given as 3.5 fold.

With `CCN(Cc1ccc(OC)cc1)C(=S)SSC(=S)N(CC)Cc1ccc(OC)cc1` [Compound 4e], the figures for the half-inhibitory concentration (IC50) in test [1] (setting [4]) and in test [2] were 0.58 ± 0.41 µM and above 500 µM, respectively.

As for `CCN(Cc1ccc(F)cc1)C(=S)SSC(=S)N(CC)Cc1ccc(F)cc1` [Compound 2], in test [3], the “IC50 against ALDH2” value is “no inhibition”. The concentration for half-maximal inhibition (IC50) in test [1] (setting [4]) is 0.17 ± 0.06 µM; in test [2], above 500 µM.

For the compound `CCN(Cc1cccs1)C(=S)SSC(=S)N(CC)Cc1cccs1` [Compound 4h, bis(N-(2-thienylmethyl)ethylthiocarbamoyl)disulphide], the IC50 in test [1] (setting [4]) is 0.39 ± 0.31 µM; in test [2], above 500 µM.
